Legend:
[1] = test system: Nanog transcription site; test: Nanog transcription bursting (MCP-mNeonGreen, NMG mESCs); assay type: cell-based, mouse
Description: (§1) It is discovered that Pol II, Sox2 and Brd4 form foci at Nanog transcription sites, with nanoscale organization akin to Pou5f1—colocalization of Pol II with 3′UTR-tagged nascent RNA and resolvable separation of enhancer-associated regulatory factors (FIGS. 9A-9D).
If accumulated Brd4 at Nanog acts mainly as a Pol II pause-release factor, upon Brd4 inhibition a reduction in burst amplitude would be expected. […] Thus, beyond controlling Pol II pause-release, Brd4 regulates transcription bursting, exemplified by the striking correspondence between burst frequency and enhancer-associated Brd4 cluster size. Bursting kinetics cannot be captured by static end-point assays that provide information averaged over a population of cells (e.g. ChIP, NET-Seq etc).
Wide-Field Cell Imaging Experiments. Live cell imaging experiments (tdPCP-EGFP and MCP-mNeonGreen tracking). For time-lapse imaging, a z-stack of 11 frames at 1 frame/second was acquired, by stepping the sample along the z-axis using the nanopositioning stage (250 nm steps). The CCD data were analyzed using IDL 6.4 (ITTVIS). Maximum projection images were calculated for each stack, and the resulting 11 sec/frame movie was used to track the intensities of individual tdPCP-EGFP-tagged transcription sites. A particle tracking routine (Crocker and Grier, 1996) was used for finding the positions of the transcription site in each frame and linking them into a 2D trajectory. The intensity trace of tdPCP-EGFP at the transcription site was corrected for photo-bleaching using the time trace of tdPCP-EGFP in a nearby nuclear region. The auto-correlation function was calculated (for the tdPCP-EGFP fluctuation analysis), or the data were imported in Origin 8.5.0 (OriginLab) and the trace fitted to a single-exponential decay (for the transcription inhibition experiments).
NMG mESCs contain 24×MS2 cassettes integrated in the 3′-UTR of both Nanog alleles and also stably express MCP-mNeonGreen (Ochiai et al., 2014).

[2] = target: T1, Brd4 foci at the Nanog locus (Mus musculus, UniProt Q9ESU6); test: Brd4 cluster signal at Nanog vs. [JQ1]; assay type: cell-based; conditions: mESCs
T1 construct: integrating a SNAP-tag at the N-terminus of the endogenous Brd4; endogenous in cells; host or cells: mouse ESCs NMG, NMG SNAP-Brd4 clone 7 (CRISPR knock-in, homozygous)
Experimental: as §1
For real-time confocal and STED imaging, example implementations may program the wave generator to scan 2 μm×2 μm or 1 μm×1 μm xy areas in 0.8 sec or 0.2 sec respectively. 3D scanning was performed (via, e.g., detection system 150) by acquiring 5 xy scans while moving the stage by 0.5 μm in z between scans. TTL pulses corresponding to single-photon events from the APDs, together with the trigger pulses from the wave generator were detected using a field-programmable gate array (FPGA) data acquisition system (National Instruments, PCIe-7852R).
Before imaging, cells were seeded onto 8-chamber coverglass (LabTek, 155411) coated with 5 μg/ml laminin (BioLamina LN511), in −2i media (OMG) or +2i media (NMG) and appropriate drugs. For SiR staining, cells were labeled with media containing 0.3 μM SiR-BG for 10 mins, at 37° C., followed by three washes with new media.
To generate OMG or NMG SNAP-Brd4 targeted cells, OMG-1 or NMG mESCs (1×106) were transfected with 10 μg SNAP-Brd4 donor vector and 0.6 μg espCas9-gRNA-Brd4 vector. […]

[3] = test system: CMV mini-gene transcription site (tdPCP-EGFP nascent RNA); test: tdPCP-EGFP nascent transcription dynamics at the CMV mini-gene after inhibitor addition (wide-field live-cell imaging); assay type: cell-based, human; conditions: U-2 OS cells, after adding 10 μM flavopiridol or 10 μM triptolide, individual transcription site traces, mean±S.D.
Description: It can be observed that Pol II accumulates at sites of active nascent transcription. Example implementations may first image Pol II dynamics relative to transcription from a single promoter in a synthetic “mini-gene” system, stably integrated as single copies in U-2 OS cells (FIGS. 4A, 11A-11C). Example implementations may track nascent RNA production via phage PP7-derived stem-loops (24×PP7) and a tandem-dimer phage coat protein EGFP fusion (tdPCP-EGFP).
It can be observed in various embodiments that target-locking enables tracking Pol II dynamics during the transcription cycle. […]
Wide-Field Cell Imaging Experiments. […] The CCD data were analyzed using IDL 6.4 (ITTVIS). Maximum projection images were calculated for each stack, and the resulting 11 sec/frame movie was used to track the intensities of individual tdPCP-EGFP-tagged transcription sites. […] The auto-correlation function was calculated (for the tdPCP-EGFP fluctuation analysis), or the data were imported in Origin 8.5.0 (OriginLab) and the trace fitted to a single-exponential decay (for the transcription inhibition experiments).

Structure (SMILES)	Nanog burst duration ([1]; JQ1 titration)	Hill equation n, Nanog burst frequency vs. [JQ1] ([1]; Nanog, mESCs)	Nanog burst amplitude ([1]; at higher [JQ1])	Nanog burst frequency ([1]; at low [JQ1])	Hill curve n, relative Brd4 signal at Nanog vs. [JQ1] [2]	tdPCP-EGFP exponential decay time [3] [s]
Cc1sc2c(c1C)C(c1ccc(Cl)cc1)=N[C@@H](CC(=O)OC(C)(C)C)c1nnc(C)n1-2 [JQ1]	largely unaffected	0.9±0.3	modest reduction	dramatically reduced	1.0	–
CN1CC[C@H](c2c(O)cc(O)c3c(=O)cc(-c4ccccc4Cl)oc23)[C@H](O)C1 [flavopiridol]	–	–	–	–	–	132 ± 38
CC(C)[C@]12O[C@H]1[C@@H]1O[C@]13[C@]1(O[C@H]1C[C@H]1C4=C(CC[C@@]13C)C(=O)OC4)[C@@H]2O [triptolide]	–	–	–	–	–	179 ± 57

— patent US12031897B2, “Target-locking single-molecule nanoscopy” (Memorial Sloan Kettering Cancer Center, priority 2019, dated 2024)
